Experimental data: ChEMBL document CHEMBL4308841, “Synthesis, in vitro antiproliferative activity, and kinase inhibitory effects of pyrazole-containing diarylureas and diarylamides” (Eur J Med Chem, 2018)

Tested on: HL-60(TB)
Assay: Growth inhibition of human HL-60(TB) cells assessed as cell growth at 0.01 uM incubated for 48 hrs by sulforhodamine B assay relative to control
Type: functional
Conditions: HL-60, 48 h, read-out: Activity

**Q.** `O=C(Nc1cccc(-n2cc(-c3ccncc3)c(-c3cc(O)cc(Cl)c3)n2)c1)Nc1ccc(Cl)c(Cl)c1` was tested. Which growth at 0.01 µM did it give?
**A.** 93%

Tested on: MDA-MB-468
Assay: Growth inhibition of human MDA-MB-468 cells assessed as cell growth at 100 uM incubated for 48 hrs by sulforhodamine B assay relative to control
Type: functional
Conditions: MDA-MB-468, 48 h, read-out: Activity

**Q.** For `O=C(Nc1cccc(-n2cc(-c3ccncc3)c(-c3cc(O)cc(Cl)c3)n2)c1)Nc1ccc(Cl)c(Cl)c1`, which growth at 100 µM is on record?
**A.** -17%

Tested on: NCI-H322M
Assay: Growth inhibition of human NCI-H322M cells assessed as cell growth at 0.1 uM incubated for 48 hrs by sulforhodamine B assay relative to control
Type: functional
Conditions: read-out: Activity

**Q.** How did the growth at 0.1 µM turn out when `O=C(Nc1cccc(-n2cc(-c3ccncc3)c(-c3cc(O)cc(Cl)c3)n2)c1)Nc1ccc(Cl)c(Cl)c1` was run?
**A.** 88%

Tested on: NCI-H460
Assay: Growth inhibition of human NCI-H460 cells assessed as cell growth at 0.01 uM incubated for 48 hrs by sulforhodamine B assay relative to control
Type: functional
Conditions: NCI-H460, 48 h, read-out: Activity

**Q.** How did the growth at 0.01 µM turn out when `O=C(Nc1cccc(-n2cc(-c3ccncc3)c(-c3cc(O)cc(Cl)c3)n2)c1)Nc1ccc(Cl)c(Cl)c1` was run?
**A.** 102%

Tested on: SNB-75
Assay: Growth inhibition of human SNB75 cells assessed as cell growth at 0.01 uM incubated for 48 hrs by sulforhodamine B assay relative to control
Type: functional
Conditions: SNB-75, 48 h, read-out: Activity

**Q.** How did the growth at 0.01 µM turn out when `O=C(Nc1cccc(-n2cc(-c3ccncc3)c(-c3cc(O)cc(Cl)c3)n2)c1)Nc1ccc(Cl)c(Cl)c1` was run?
**A.** 94%

Tested on: PC-3
Assay: Growth inhibition of human PC3 cells incubated for 48 hrs by sulforhodamine B assay
Type: functional, cell-based
Conditions: PC-3, 48 h

**Q.** `O=C(Nc1cccc(-n2cc(-c3ccncc3)c(-c3cc(O)cc(Cl)c3)n2)c1)Nc1ccc(Cl)c(Cl)c1` was tested. Which IC50 did it give?
**A.** 1.69 µM

Same assay, conditions: PC-3, 48 h, read-out: GI50

**Q.** Which GI50 does the source give for `O=C(Nc1cccc(-n2cc(-c3ccncc3)c(-c3cc(O)cc(Cl)c3)n2)c1)Nc1ccc(Cl)c(Cl)c1` here?
**A.** 1.59 µM

Same assay, conditions: PC-3, 48 h, read-out: LC50 (the source's name)

**Q.** How did the CC50 turn out when `O=C(Nc1cccc(-n2cc(-c3ccncc3)c(-c3cc(O)cc(Cl)c3)n2)c1)Nc1ccc(Cl)c(Cl)c1` was run?
**A.** > 100 µM

Same assay, conditions: PC-3, 48 h, read-out: TGI

**Q.** For `O=C(Nc1cccc(-n2cc(-c3ccncc3)c(-c3cc(O)cc(Cl)c3)n2)c1)Nc1ccc(Cl)c(Cl)c1`, which TGI is on record?
**A.** 58.8 µM

Same assay, conditions: PC-3, 48 h, read-out: pGI50 (converted)

**Q.** Which GI50 does the source give for `O=C(Nc1cccc(-n2cc(-c3ccncc3)c(-c3cc(O)cc(Cl)c3)n2)c1)Nc1ccc(Cl)c(Cl)c1` here?
**A.** 1.7 µM

Same assay, conditions: PC-3, 48 h, read-out: pLC50 (the source's name) (converted)

**Q.** `O=C(Nc1cccc(-n2cc(-c3ccncc3)c(-c3cc(O)cc(Cl)c3)n2)c1)Nc1ccc(Cl)c(Cl)c1` was tested. Which CC50 did it give?
**A.** > 100 µM

Same assay, conditions: PC-3, 48 h, read-out: pTGI (converted)

**Q.** `O=C(Nc1cccc(-n2cc(-c3ccncc3)c(-c3cc(O)cc(Cl)c3)n2)c1)Nc1ccc(Cl)c(Cl)c1` was tested. Which TGI did it give?
**A.** 5.62 µM

Tested on: MOLT-4
Assay: Growth inhibition of human MOLT4 cells incubated for 48 hrs by sulforhodamine B assay
Type: functional, cell-based
Conditions: MOLT-4, 48 h, read-out: GI50

**Q.** How did the GI50 turn out when `O=C(Nc1cccc(-n2cc(-c3ccncc3)c(-c3cc(O)cc(Cl)c3)n2)c1)Nc1ccc(Cl)c(Cl)c1` was run?
**A.** 1.43 µM

Same assay, conditions: MOLT-4, 48 h, read-out: LC50 (the source's name)

**Q.** With `O=C(Nc1cccc(-n2cc(-c3ccncc3)c(-c3cc(O)cc(Cl)c3)n2)c1)Nc1ccc(Cl)c(Cl)c1` as the molecule, how does the CC50 read?
**A.** > 100 µM

Same assay, conditions: MOLT-4, 48 h, read-out: TGI

**Q.** Which TGI does the source give for `O=C(Nc1cccc(-n2cc(-c3ccncc3)c(-c3cc(O)cc(Cl)c3)n2)c1)Nc1ccc(Cl)c(Cl)c1` here?
**A.** 51.8 µM

Same assay, conditions: MOLT-4, 48 h, read-out: pGI50 (converted)

**Q.** How did the GI50 turn out when `O=C(Nc1cccc(-n2cc(-c3ccncc3)c(-c3cc(O)cc(Cl)c3)n2)c1)Nc1ccc(Cl)c(Cl)c1` was run?
**A.** 1.41 µM

Same assay, conditions: MOLT-4, 48 h, read-out: pLC50 (the source's name) (converted)

**Q.** `O=C(Nc1cccc(-n2cc(-c3ccncc3)c(-c3cc(O)cc(Cl)c3)n2)c1)Nc1ccc(Cl)c(Cl)c1` was tested. Which CC50 did it give?
**A.** > 100 µM

Same assay, conditions: MOLT-4, 48 h, read-out: pTGI (converted)

**Q.** How did the TGI turn out when `O=C(Nc1cccc(-n2cc(-c3ccncc3)c(-c3cc(O)cc(Cl)c3)n2)c1)Nc1ccc(Cl)c(Cl)c1` was run?
**A.** 5.13 µM

Tested on: SK-MEL-5
Assay: Growth inhibition of human SK-MEL-5 cells assessed as cell growth at 100 uM incubated for 48 hrs by sulforhodamine B assay relative to control
Type: functional
Conditions: SK-MEL-5, 48 h, read-out: Activity

**Q.** Which growth at 100 µM does the source give for `O=C(Nc1cccc(-n2cc(-c3ccncc3)c(-c3cc(O)cc(Cl)c3)n2)c1)Nc1ccc(Cl)c(Cl)c1` here?
**A.** -78%

Tested on: MDA-MB-435
Assay: Growth inhibition of human MDA-MB-435 cells assessed as cell growth at 0.01 uM incubated for 48 hrs by sulforhodamine B assay relative to control
Type: functional
Conditions: MDA-MB-435, 48 h, read-out: Activity

**Q.** How did the growth at 0.01 µM turn out when `O=C(Nc1cccc(-n2cc(-c3ccncc3)c(-c3cc(O)cc(Cl)c3)n2)c1)Nc1ccc(Cl)c(Cl)c1` was run?
**A.** 96%

Tested on: CAKI-1
Assay: Growth inhibition of human Caki1 cells assessed as cell growth at 0.1 uM incubated for 48 hrs by sulforhodamine B assay relative to control
Type: functional
Conditions: CAKI-1, 48 h, read-out: Activity

**Q.** How did the growth at 0.1 µM turn out when `O=C(Nc1cccc(-n2cc(-c3ccncc3)c(-c3cc(O)cc(Cl)c3)n2)c1)Nc1ccc(Cl)c(Cl)c1` was run?
**A.** 98%

Tested on: DU-145
Assay: Growth inhibition of human DU145 cells assessed as cell growth at 0.01 uM incubated for 48 hrs by sulforhodamine B assay relative to control
Type: functional
Conditions: DU-145, 48 h, read-out: Activity

**Q.** How did the growth at 0.01 µM turn out when `O=C(Nc1cccc(-n2cc(-c3ccncc3)c(-c3cc(O)cc(Cl)c3)n2)c1)Nc1ccc(Cl)c(Cl)c1` was run?
**A.** 108%

Tested on: SF-539
Assay: Growth inhibition of human SF539 cells assessed as cell growth at 100 uM incubated for 48 hrs by sulforhodamine B assay relative to control
Type: functional
Conditions: SF-539, 48 h, read-out: Activity

**Q.** With `O=C(Nc1cccc(-n2cc(-c3ccncc3)c(-c3cc(O)cc(Cl)c3)n2)c1)Nc1ccc(Cl)c(Cl)c1` as the molecule, how does the growth at 100 µM read?
**A.** -52%

Tested on: SK-MEL-2
Assay: Growth inhibition of human SK-MEL-2 cells assessed as cell growth at 100 uM incubated for 48 hrs by sulforhodamine B assay relative to control
Type: functional
Conditions: SK-MEL-2, 48 h, read-out: Activity

**Q.** How did the growth at 100 µM turn out when `O=C(Nc1cccc(-n2cc(-c3ccncc3)c(-c3cc(O)cc(Cl)c3)n2)c1)Nc1ccc(Cl)c(Cl)c1` was run?
**A.** -52%

Tested on: SN12C
Assay: Growth inhibition of human SN12C cells assessed as cell growth at 1 uM incubated for 48 hrs by sulforhodamine B assay relative to control
Type: functional
Conditions: read-out: Activity

**Q.** Which growth at 1 µM does the source give for `O=C(Nc1cccc(-n2cc(-c3ccncc3)c(-c3cc(O)cc(Cl)c3)n2)c1)Nc1ccc(Cl)c(Cl)c1` here?
**A.** 58%

Tested on: MCF7
Assay: Growth inhibition of human MCF7 cells assessed as cell growth at 1 uM incubated for 48 hrs by sulforhodamine B assay relative to control
Type: functional
Conditions: MCF7, 48 h, read-out: Activity

**Q.** Which growth at 1 µM does the source give for `O=C(Nc1cccc(-n2cc(-c3ccncc3)c(-c3cc(O)cc(Cl)c3)n2)c1)Nc1ccc(Cl)c(Cl)c1` here?
**A.** 91%

Tested on: MDA-MB-231
Assay: Growth inhibition of human MDA-MB-231 cells incubated for 48 hrs by sulforhodamine B assay
Type: functional, cell-based
Conditions: MDA-MB-231, 48 h, read-out: GI50

**Q.** `O=C(Nc1cccc(-n2cc(-c3ccncc3)c(-c3cc(O)cc(Cl)c3)n2)c1)Nc1ccc(Cl)c(Cl)c1` was tested. Which GI50 did it give?
**A.** 1.01 µM

Same assay, conditions: MDA-MB-231, 48 h, read-out: LC50 (the source's name)

**Q.** Which CC50 does the source give for `O=C(Nc1cccc(-n2cc(-c3ccncc3)c(-c3cc(O)cc(Cl)c3)n2)c1)Nc1ccc(Cl)c(Cl)c1` here?
**A.** > 100 µM

Same assay, conditions: MDA-MB-231, 48 h, read-out: TGI

**Q.** For `O=C(Nc1cccc(-n2cc(-c3ccncc3)c(-c3cc(O)cc(Cl)c3)n2)c1)Nc1ccc(Cl)c(Cl)c1`, which TGI is on record?
**A.** 77 µM
